Measurements as given in ChEMBL document CHEMBL5030528, “Xanthine Derivatives Reveal an Allosteric Binding Site in Methylenetetrahydrofolate Dehydrogenase 2 (MTHFD2)” (J Med Chem, 2021).
The source made the active and inactive calls. The calls are words filed in the database; no cut-off is given here.

How the values were obtained:
[1] = molecular target: T1, Bifunctional methylenetetrahydrofolate dehydrogenase/cyclohydrolase, mitochondrial (Homo sapiens) (UniProt P13995); test: Uncompetitive inhibition of C-terminal His-tagged human MTHFD2 (36 to 350 residues) expressed in insect cells assessed as decrease in Km by using varying levels of tetrahydrofolate as substrate by double-reciprocal plot analysis; conditions: time 10.0 min
T1 sequence (whole entry): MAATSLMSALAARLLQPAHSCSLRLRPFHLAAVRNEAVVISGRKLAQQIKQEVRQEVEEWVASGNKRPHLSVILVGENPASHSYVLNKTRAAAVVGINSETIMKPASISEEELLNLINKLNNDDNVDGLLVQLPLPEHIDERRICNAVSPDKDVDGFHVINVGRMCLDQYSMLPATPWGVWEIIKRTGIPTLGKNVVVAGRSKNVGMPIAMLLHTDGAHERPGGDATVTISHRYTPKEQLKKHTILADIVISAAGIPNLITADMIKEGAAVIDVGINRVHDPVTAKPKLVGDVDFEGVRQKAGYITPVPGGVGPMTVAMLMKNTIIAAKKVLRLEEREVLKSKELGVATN

[2] = molecular target: T1, Bifunctional methylenetetrahydrofolate dehydrogenase/cyclohydrolase, mitochondrial (Homo sapiens); test: Uncompetitive inhibition of C-terminal His-tagged human MTHFD2 (36 to 350 residues) expressed in insect cells assessed as decrease in Vmax using varying levels of tetrahydrofolate as substrate by double-reciprocal plot analysis; conditions: time 10.0 min

- inhibition [1]: Active
- inhibition [2]: Active
Structure (SMILES): Cc1cc(Nc2nc3c(c(=O)n(Cc4cc5c(Cl)cccc5[nH]4)c(=O)n3C)n2C)nc(CCC(=O)O)n1
